The test system of the data set is wild-type N2 C. elegans.

Procedure: The synchronized L1-stage nematodes were diluted to 20 to 30 nematodes/10 μL. The L1-stage C. elegans was collected in the S broth and cultured in a 96-well plate (365 μL/well). 165 μL of medium, 20 μL of different concentrations of CTX treatment groups, 10 μL of L1-stage nematodes, and 5 μL of OP50 were added in sequence into the 96-well plate, and the nematodes were cultured in a biological incubator at 20° C. for 72 h, where each concentration was set with 10 groups in parallel.
The CTX was set up in three exposure groups from low to high, with concentrations being 500 μg/mL, 1 mg/mL, and 2 mg/mL. At the same time, a blank control was set up.
The nematodes treated with different concentrations of drugs were transferred to NGM, and only one nematode was placed on each medium. The one nematode was picked to a new medium every day with a worm picker. After nematodes produced by this one nematode on the old medium grew to adults, the number of nematodes on the NGM plates with different concentrations of CTX was counted until this one nematode no longer lay eggs. A sum of the number of nematodes exchanged every day was the number of eggs laid and hatched in a whole reproductive cycle of the nematode, and the reproductive capacity of the nematode was determined based on this.
L1-stage C. elegans was obtained according to the protocol in Example 1, and was treated with the CTX at a concentration of 1 mg/mL according to Example 1. Effect of treatment time on the reproductive capacity of the C. elegans was investigated.
Nematodes in L1 to L4 stages were used to construct models and the rest of the steps were conducted according to the method in Example 1.
At 20° C. a blank control group and a CTX treatment group were given pure OP50 bacterial solution and 1 mg/mL CTX/OP50 bacterial solution, respectively. Food were supplemented every 24 h, and whether the nematodes survived normally was observed. After treated in S broth for 72 h, the nematodes in the blank group and the CTX treatment group were transferred to NGM with food OP50, and one nematode was placed on each medium. The one nematode was picked to a new medium every day with a worm picker After nematodes produced by this one nematode on the old medium grew to adults, the number of nematodes on NGM plates of the blank group and the CTX treatment group was counted until this one nematode no longer lay eggs.

For `O=P1(N(CCCl)CCCl)NCCCO1` (centres unmarked) [CTX, cyclophosphamide], the “reproductive capacity of C. elegans as a function of CTX concentration” value (500 μg/mL to 2 mg/mL, L1-stage, S broth, 72 h) is recorded as “decreased with the increase of concentration”. For the same molecule, where the note is “CTX 1 mg/mL, 48 h to 96 h treatment”, the “total number of reproduced C. elegans compared with the control” value is “significantly reduced”. Under “CTX 1 mg/mL, L1-stage nematodes, S broth, 20° C., 72 h”, the “reduction of reproductive capacity (total number of nematodes reproduced) compared with blank control group” value is on record as 50%. Moreover, under “CTX 1 mg/mL, treated for 72 h”, the “total reproduced C. elegans” value is “reduced to the minimum”. Further, the fecundity of nematodes entry (drug treatment at different larval stages L1 to L4) is given as “significantly reduce the fecundity”.

These data come from patent US20250031679A1, “SCREENING METHOD OF PROBIOTIC AND ACTIVE SUBSTANCE FOR PROMOTING RE[…] AND USE” (Xuzhou Medical University, priority 2023, published 2025).
